Assay results reported in patent US9526243B2, “Pollination success and seed set in corn hybrid seed production” (priority 2012, dated 2016).

Experiments:
Type in all cases: in vivo, corn (maize, Zea mays)
[1] = tested on: Inbred B male plants (corn); test: GA3 spray to increase male inbred height, Inbred B (Brazil); settings: for plant height increase: one application before flowering, 365 g GA3 (10% active ingredient) per hectare
Description: (§1) GA3 spray to increase male inbred height was also tested with 2 more inbreds, Inbred B and Inbred C, in Brazil.
Inbred B was sown in two sequential plantings, separated by 80 to 100 heat units. The first planting is referred to as the primary male; the second planting is referred to as the secondary male. The two male plantings were separated in the field by 40 cm; minimum distance from female rows was 70 cm.
(§2) Data were collected after the following treatments: (a) control, (b) GA3: one application, before flowering, when the tassel is enveloped in 2 leaves; (b) GA3: 2 sequential applications, one at V6 stage and 1 application before flowering. The concentration of GA3 used was 365 g of GA3 (10% active ingredient) per hectare (which is approximately equivalent to 40 g of GA3 at 90% active ingredient), and the spray volume was 130 liters/hectare.
(§3) The plot had 5.20 meter length of each row and 60 cm between plots. Ten male plants in sequence for each male row (primary male and secondary male separate) were measured and the average calculation was obtained and replicated 5 times in different plots. Measurements taken were plant height; length of primary rachis of the tassel; number of secondary tassel branches; and visual pollen score where 1=no pollen (sterile), 5=average amount of pollen, and 9=large amount of pollen.

[2] = tested on: male parent plant of Hybrid A (corn)
Text: Hybrid A is a three-way corn hybrid which performs well in rain-fed areas in India. The female parent of this hybrid is a single cross and male parent is an inbred. […] The ear height in female is 94 cm and male plant height (including tassel length) is 190 cm. The ratio of male parent plant height to female parent ear height is 2.02. This is not favorable for pollen dispersal and cross fertilization. A taller male gives a very clear advantage in easy spread of pollen. Further, a height disadvantage is amplified where the female is a single cross and male is inbred, as the robust female parent suppresses male parent growth. […] With less seed yield due to low seed set, seed production may be uneconomical in Hybrid A. Controlled use of Gibberellic Acid as foliar spray for male parent helped increase the plant height and thereby facilitated easier dispersal of pollen for better pollination success.
When GA3 was sprayed on male parent at a given dosage, the last few internodes were elongated and the plant height was increased by 33 cm. The ratio of male parent plant height to female parent ear height increased from 2.02 in control (no GA3 spray) to 2.40 after spray. This spray was done when a minimum of 80% of the plants had the tassel wrapped in two leaves.
A field trial was conducted to study the impact of GA3 on male parent plant height and also seed yield in hybrid seed production. GA3 dose of 10 g (dissolved in 100 ml alcohol) was sprayed in one acre of male plants (25% of area in 3:1 row ratio) when male tassel is wrapped up in two leaves.

[3] = tested on: Inbred C male plants (corn); test: GA3 spray to increase male inbred height, Inbred C (Brazil)
Description: as §1, §2, §3

[4] = Inbred B, one GA application vs control
[5] = Inbred B, two sequential GA treatments (V6 and before flowering), relative to control, primary and secondary males

Compound: C=C1C[C@]23C[C@@]1(O)CC[C@H]2[C@@]12C=C[C@H](O)[C@@](C)(C(=O)O1)[C@H]2[C@@H]3C(=O)O [GA3, gibberellin A3]
- plant height increase ([1]; Inbred B primary males): about 10 cm
- plant height increase ([1]; Inbred B secondary males): ~15 cm
- height of male parent plants ([1]; Inbred B, GA3 concentration increased to 16 g/1000 m^2 of male plants): increase further
- number of secondary branches on the rachis [1, 4]: did not change significantly
- primary rachis length [1, 4]: did not change significantly
- pollen score ([1]; Inbred B, one GA application vs control, visual score 1-9): did not change significantly
- pollen score [1, 5]: reduced
- size of the main rachis [1, 5]: reduced
- yield improvement ([2]; Hybrid A experimental plot, GA3 treatment vs control): 32%
- hybrid seed yield with GA3 treatment ([2]; Hybrid A experimental plot, control 607 Kg/Acre): 803 Kg/Acre
- negative or deleterious effects on other plant processes ([2]; Hybrid A male parent after GA3 spray): without any negative or deleterious effects
- increase in male parent plant height ([2]; Hybrid A male parent, GA3 10 g sprayed when tassel wrapped in two leaves, vs control (no GA3 spray)): 33 cm
- male parent plant height increase ([2]; Hybrid A male parent, after spraying GA3, from 190 cm): 17%
- male parent plant height after spraying GA3 ([2]; Hybrid A male parent, control 190 cm): 223 cm
- ratio of male parent plant height to female parent ear height after spray ([2]; Hybrid A, after GA3 spray, control 2.02): 2.40
- effect of a second application compared with a single application ([3]; 2 sequential applications (V6 and before flowering)): not more favorable than a single application
- number of secondary branches on the rachis ([3]; one GA application vs control): did not change significantly
- primary rachis length ([3]; one GA application vs control): did not change significantly
- pollen score ([3]; one GA application vs control, visual score 1-9): did not change significantly
- plant height increase ([3]; one application of GA3): ~12 cm
